Source: PubChem BioAssay (NCI)
Where “and” joins values, the source holds several entries; their conditions need not be identical. Identical values can stand only once.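 Protocol summary: plate cells (96-well), add compound at 5 concentrations, incubate 48 h, interpolate endpoints linearly. GI50 = concentration required for 50% inhibition of growth. Definition used: TGI = concentration required for complete inhibition of growth.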

What was measured:
Test in all cases: NCI-60 cell line screen, 48 h
COLO 205 colon = tested on: COLO 205 colon
EKVX NSCLC = tested on: EKVX NSCLC
HCC-2998 colon = tested on: HCC-2998 colon
HCT-116 colon = tested on: HCT-116 colon
IGROV1 ovarian = tested on: IGROV1 ovarian
MDA-MB-435 = tested on: MDA-MB-435
MDA-N = tested on: MDA-N
OVCAR-5 ovarian = tested on: OVCAR-5 ovarian
SF-295 CNS = tested on: SF-295 CNS
SK-MEL-2 melanoma = tested on: SK-MEL-2 melanoma
SNB-19 CNS = tested on: SNB-19 CNS

Compound	TGI (COLO 205 colon)	TGI (EKVX NSCLC)	TGI (HCC-2998 colon) [µM]	TGI (HCT-116 colon)	TGI (IGROV1 ovarian)	TGI (MDA-MB-435)	TGI (MDA-N)	TGI (OVCAR-5 ovarian)	TGI (SF-295 CNS)	TGI (SK-MEL-2 melanoma)	TGI (SNB-19 CNS)	GI50 (HCT-116 colon)	GI50 (IGROV1 ovarian)	GI50 (MDA-MB-435)	GI50 (SF-295 CNS)	GI50 (EKVX NSCLC)	GI50 (MDA-N) [µM]	GI50 (OVCAR-5 ovarian)	GI50 (SK-MEL-2 melanoma) [µM]	GI50 (SNB-19 CNS)
O=C1Oc2ccccc2C(=O)/C1=C/N1C(=O)N/C(=C\c2ccccc2O)C1=O	> 100 µM	> 100 µM	> 100	> 100 µM	> 100 µM	> 100 µM	> 100 µM	> 100 µM	> 100 µM	> 100 µM	> 100 µM									
O=c1cc(CNC2CCCC2)[nH]c(=O)[nH]1	> 100 µM	> 100 µM	> 100	> 100 µM	> 100 µM	> 100 µM	> 100 µM	> 100 µM	> 100 µM	> 100 µM	> 100 µM									
O=c1c2ccccc2oc2nc3n(c(=O)c12)CCCS3	> 100 µM	> 100 µM	> 100	> 100 µM	> 100 µM	> 100 µM	> 100 µM	> 100 µM	> 100 µM	> 100 µM	> 100 µM									
CCC(C)[C@H](NC(=O)[C@H](Cc1ccccc1)NC(=O)N(CC)c1ccccc1)C(=O)N[C@@H](CC(C)C)C(=O)OC (stereo partly specified)	> 100 µM	> 100 µM	> 100	> 100 µM	61.5 µM	> 100 µM	> 100 µM	> 100 µM	> 100 µM	> 100 µM	> 100 µM									
O=C1NC(N/N=C\C(O)C(O)C(O)CO)=N/C1=C/c1ccccc1 (stereo unspecified)	> 100 µM	> 100 µM	> 100	> 100 µM	> 100 µM	> 100 µM	> 100 µM	> 100 µM	> 100 µM	> 100 µM	> 100 µM	> 100 µM and 37.5 µM	> 100 µM and 43.3 µM	> 100 µM and 49.6 µM	> 100 µM and 38.2 µM					
O=C1C=CC2CCC1C2 (stereo unspecified)	> 100 µM	> 100 µM	89.9	> 100 µM	> 100 µM	61.5 µM	> 100 µM	61.6 µM	> 100 µM	> 100 µM	96.3 µM									
Cc1nc2c(=S)[nH]ncc2[nH]1	> 100 µM	> 100 µM	> 100	> 100 µM	> 100 µM	> 100 µM	> 100 µM	> 100 µM	> 100 µM	> 100 µM	> 100 µM									
c1ccc(CNC2CC(NCc3ccccn3)CC(NCc3ccccn3)C2)nc1 (stereo unspecified)	4.02 µM and 4.61 µM and 3.21 µM	14.7 µM and 25 µM and 16.6 µM	3.72	5.27 µM and 7.2 µM and 3.68 µM	10.1 µM and 11.1 µM and 22.5 µM	9.45 µM and 8.78 µM and 15.5 µM	12.5 µM and 11.3 µM and 4.78 µM	14.4 µM and 25 µM and 8.94 µM	18.9 µM and 20.9 µM and 36.5 µM	6.86 µM and 11.5 µM and 12.2 µM	11.7 µM and 5.64 µM and 3.83 µM	1.86 µM		3.84 µM	5.03 µM	3.87 µM and 7.93 µM and 3.88 µM	2.22	3.66 µM and 14.4 µM and 2.89 µM	3.4	3.42 µM and 1.64 µM and 1.96 µM
C=C(C)[C@@H]1CC[C@]2(C(=O)O)CC[C@]3(C)[C@H](CC[C@@H]4[C@@]5(C)CC(=O)C(C)(C)[C@@H]5CC[C@]43C)[C@@H]12	8.71 µM	> 25 µM	12	8.83 µM	> 25 µM	> 25 µM	> 25 µM	> 25 µM	> 25 µM	9.71 µM	> 25 µM									
